How the values were obtained:
[1] = test system: DU-145; assay: MTT assay for cell cytotoxicity; type: cell-based, human; conditions: Homo sapiens, 72 h, at least three independent experiments, read-out: MTT assay (IC50 ± SD) DU-145
Experimental: (§1) All of synthesis compounds were evaluated cell cytotoxicity by using MTT colorimetric assay on PC-3 and DU-145 cell lines. DU-145 and PC-3 are human hormone-refractory (androgen-independent) prostatic cancer cell lines from American Type Culture Collection (HTB-81™, ATCC, Rockville, MD)^125 and Bioresource Collection and Research Center (60122, BCRC, Taiwan)^126, respectively. Two of the "classical" cell lines were cultivated in RPMI-1640 medium supplemented with 5% fetal bovine serum (v/v), 100 U/mL penicillin, and […] streptomycin. Approximately 2 x 10^3 cells were seeded into each well of a 96-well plate and incubated in 5% CO2 at 37 °C for 24 h. To evaluate the in vitro cytotoxicity, all the synthetic compounds were dissolved in DMSO, prepared immediately before the experiments and diluted into the complete medium before being added to each well of a 96-well plate. Each compound was then added to the culture medium for designated various concentrations (0.15, 0.5, 1.5, 5, 15 µM). After 72 h, an amount of 100 µL of MTT (1 mg/mL) was added to each well, and the samples were incubated at 37 °C for 4 h. After removing the MTT solution, 100 µL of DMSO was added to each well and incubated at 37 °C for another 20 mins. The absorbency at 560 nm was measured by using an ELISA reader.
(§2) Results are expressed as mean values of at least three independent experiments. The IC50 values of testing compounds were described in Table 1. Table1. Effects of 10-Chloro-12H-thiochromeno[2,3-c]quinolin -12-one derivatives on cytotoxicity by MTT assay.

[2] = test system: PC-3; assay: MTT assay for cell cytotoxicity; type: cell-based, human; conditions: Homo sapiens, 72 h, at least three independent experiments, read-out: MTT assay (IC50 ± SD) PC-3
Experimental: as §1, §2

[3] = biological target: T1, TOP I (Homo sapiens, UniProt P11387); assay: Topoisomerase I activity assay (DNA relaxation catalyzed by TOP I); type: biochemical; conditions: primary assay at 25 and/or 50 µM
T1 construct: purchased TopoGEN TG2005H
T1 sequence (P11387 1-765): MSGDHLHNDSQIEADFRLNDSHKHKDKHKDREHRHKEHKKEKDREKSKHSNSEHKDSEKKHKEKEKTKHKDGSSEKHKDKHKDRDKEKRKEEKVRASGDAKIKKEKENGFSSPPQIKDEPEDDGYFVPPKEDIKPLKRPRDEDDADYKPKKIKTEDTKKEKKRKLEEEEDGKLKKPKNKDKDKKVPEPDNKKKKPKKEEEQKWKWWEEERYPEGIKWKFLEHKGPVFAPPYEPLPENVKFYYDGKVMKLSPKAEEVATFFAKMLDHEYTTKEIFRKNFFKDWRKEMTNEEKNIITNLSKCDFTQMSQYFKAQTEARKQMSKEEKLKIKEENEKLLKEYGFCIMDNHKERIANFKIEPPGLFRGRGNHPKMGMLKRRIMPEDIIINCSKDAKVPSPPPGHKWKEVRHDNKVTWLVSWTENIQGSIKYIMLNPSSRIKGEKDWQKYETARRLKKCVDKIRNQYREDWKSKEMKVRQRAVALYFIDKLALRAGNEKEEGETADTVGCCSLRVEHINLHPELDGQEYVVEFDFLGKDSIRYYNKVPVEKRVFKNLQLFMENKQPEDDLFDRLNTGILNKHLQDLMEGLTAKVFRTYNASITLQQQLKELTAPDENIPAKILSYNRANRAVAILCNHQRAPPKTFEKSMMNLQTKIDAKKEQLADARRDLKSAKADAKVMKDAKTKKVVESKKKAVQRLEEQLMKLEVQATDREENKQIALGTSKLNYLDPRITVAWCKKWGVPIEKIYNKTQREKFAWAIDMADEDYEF
Experimental: According to the cell cytotoxicity, compounds 5, 7, 8, 16, 19, N2, N7, N8, N9, N14-N19, and N25 were also selected for primary TOP I and II activities assays at 25 and/or 50 µM (Fig. 2-4).

[4] = biological target: T2, TOP II (Homo sapiens, UniProt P11388); assay: Topoisomerase II activity assay (TOP II-catalyzed relaxation of plasmid DNA); type: biochemical; conditions: primary assay at 25 and/or 50 µM
T2 construct: purchased TopoGEN TG-2000H-1
Experimental: We also performed TOP 11-catalyzed relaxation of plasmid DNA assays(Fig. 5-7) to evaluate if compounds could inhibit TOP II. […] The IC50 value of compounds 7, N7, N8, N14, N15, N18, and N19 were about 10, 10, 1, 10, 5, 1, and 1 µM, respectively (detect by TopoGEN TG2005H, TG-2000H-1).

T2 sequence (P11388 whole entry): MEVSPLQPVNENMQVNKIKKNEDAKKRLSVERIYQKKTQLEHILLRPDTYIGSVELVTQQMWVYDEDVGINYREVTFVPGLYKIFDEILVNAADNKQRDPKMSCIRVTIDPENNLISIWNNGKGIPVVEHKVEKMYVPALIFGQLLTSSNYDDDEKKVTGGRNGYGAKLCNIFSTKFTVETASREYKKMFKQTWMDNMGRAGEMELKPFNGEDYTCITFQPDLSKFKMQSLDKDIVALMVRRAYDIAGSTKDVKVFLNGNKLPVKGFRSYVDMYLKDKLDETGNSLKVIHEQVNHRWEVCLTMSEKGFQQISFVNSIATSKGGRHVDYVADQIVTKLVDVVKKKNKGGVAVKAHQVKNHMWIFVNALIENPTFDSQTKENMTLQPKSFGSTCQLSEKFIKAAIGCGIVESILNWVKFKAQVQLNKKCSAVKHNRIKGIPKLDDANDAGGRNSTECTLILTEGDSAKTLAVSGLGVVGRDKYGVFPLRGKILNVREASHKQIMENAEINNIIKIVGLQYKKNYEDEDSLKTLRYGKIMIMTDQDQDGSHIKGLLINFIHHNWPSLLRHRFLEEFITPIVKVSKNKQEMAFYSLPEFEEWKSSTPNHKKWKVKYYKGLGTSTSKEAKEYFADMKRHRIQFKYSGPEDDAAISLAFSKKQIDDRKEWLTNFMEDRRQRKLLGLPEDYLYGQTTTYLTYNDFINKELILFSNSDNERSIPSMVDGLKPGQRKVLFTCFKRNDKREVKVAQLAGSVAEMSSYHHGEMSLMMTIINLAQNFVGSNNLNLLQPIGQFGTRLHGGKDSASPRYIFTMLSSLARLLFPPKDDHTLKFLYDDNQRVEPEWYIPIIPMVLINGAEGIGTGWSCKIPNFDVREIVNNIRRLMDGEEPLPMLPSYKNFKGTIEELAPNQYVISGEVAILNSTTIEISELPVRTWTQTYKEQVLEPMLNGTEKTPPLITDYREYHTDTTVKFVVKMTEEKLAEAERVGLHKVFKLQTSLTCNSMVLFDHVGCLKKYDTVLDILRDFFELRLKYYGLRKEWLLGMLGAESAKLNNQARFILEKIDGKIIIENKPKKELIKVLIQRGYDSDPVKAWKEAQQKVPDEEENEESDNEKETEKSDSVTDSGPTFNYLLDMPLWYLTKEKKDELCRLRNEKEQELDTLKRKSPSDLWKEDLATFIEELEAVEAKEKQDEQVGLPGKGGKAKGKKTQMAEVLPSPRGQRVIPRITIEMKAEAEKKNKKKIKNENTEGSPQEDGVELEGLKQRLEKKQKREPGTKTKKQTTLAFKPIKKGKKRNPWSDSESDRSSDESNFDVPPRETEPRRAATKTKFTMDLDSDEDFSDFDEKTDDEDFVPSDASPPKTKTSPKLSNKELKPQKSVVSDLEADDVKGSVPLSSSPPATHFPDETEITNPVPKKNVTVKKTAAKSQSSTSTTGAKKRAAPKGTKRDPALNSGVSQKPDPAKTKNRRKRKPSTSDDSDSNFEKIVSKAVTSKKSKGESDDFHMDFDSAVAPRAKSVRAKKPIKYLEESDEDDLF

SMILES	IC50 [1] [µM]	IC50 [2] [µM]	inhibitory effects in TOP I activity assay compared with CPT [3]	inhibitory effects on TOP II compared with the positive agent VP-16 [4]
O=c1c2cc(Cl)ccc2sc2c(N3CCNCC3)nc3ccccc3c12 [Compound 7, 10-Chloro-6-(piperazin-1-yl)-12H-thiochromeno[2,3-c]quinolin-12-one]	5.01 ± 1.68	2.84 ± 0.64	more potent inhibitory effects than CPT	more potent inhibitory effects than the positive agent VP-16
CCN(CC)CCCNc1nc2ccccc2c2c(=O)c3cc(Cl)ccc3sc12 [Compound N18, 10-Chloro-6-((3-(diethylamino)propyl)amino)-12H-thiochrome no[2,3-c]quinolin-12-one]	3.53 ± 1.05	2.22 ± 0.21	more potent inhibitory effects than CPT	more potent inhibitory effects than the positive agent VP-16
